Data from the Kinase Knowledgebase extract (Sharma et al. 2016).

target: CDK2 (human) (UniProt P24941); experiment: Enzyme Assay

Compound | Ki
CCc1cc(Nc2cc(C)[nH]n2)nc(C(C)(C)c2ccc3c(=O)[nH][nH]c3c2)n1 | < 1000 nM
O=c1[nH][nH]c2cc(CC(CCNc3ccccn3)Cc3ccccc3)ccc12 (stereo unspecified) | < 1000 nM
O=c1[nH][nH]c2cc(OC3COCC(Nc4cc(C5CC5)[nH]n4)C3)ccc12 (stereo unspecified) | < 1000 nM
O=c1[nH][nH]c2cc(Oc3nccc(Nc4cc(C5CC5)[nH]n4)n3)ccc12 | < 1000 nM
Cc1cc(Nc2nc(Nc3ccc4c(=O)[nH][nH]c4c3)nc3cccc(C)c23)n[nH]1 | < 1000 nM
O=c1[nH][nH]c2cc(SCC3CCCC3Nc3ccccn3)ccc12 (stereo unspecified) | < 1000 nM
O=C(CC(=O)Nc1cc(C2CC2)[nH]n1)Nc1ccc2c(=O)[nH][nH]c2c1 | < 1000 nM
O=c1[nH][nH]c2cc(CCC3CCCC3Nc3ccccn3)ccc12 (stereo unspecified) | < 1000 nM
Nc1ncc2c(Nc3n[nH]c4ccccc34)nc(-c3ccc4[nH][nH]c(=O)c4c3C(F)(F)F)nc2n1 | < 1000 nM
O=c1[nH][nH]c2cc(C3(C4CCCC(Nc5ccccn5)C4)CC3)ccc12 (stereo unspecified) | < 1000 nM
Cc1cc(Nc2nc(Sc3ccc4c(=O)[nH][nH]c4c3)nc3cc(O)ccc23)n[nH]1 | < 1000 nM
O=C(CCNc1ccccn1)Nc1ccc2c(=O)[nH][nH]c2c1 | < 1000 nM
O=c1[nH][nH]c2cc(NC(CCNc3cc(C4CC4)[nH]n3)Cc3ccccc3)ccc12 (stereo unspecified) | < 1000 nM
O=c1[nH][nH]c2cc(SC3COCC(Nc4ccccn4)C3)ccc12 (stereo unspecified) | < 1000 nM
Cc1cc(Nc2nc(-c3c(C)cc4[nH][nH]c(=O)c4c3C)nc3ccccc23)n[nH]1 | < 1000 nM
O=c1[nH][nH]c2cc(Sc3cccc(Nc4cc(C5CC5)[nH]n4)n3)ccc12 | < 1000 nM
O=c1[nH][nH]c2cc(OC3CCCC(Nc4nccnn4)C3)ccc12 (stereo unspecified) | < 1000 nM
O=c1[nH][nH]c2cc(C(F)(F)F)c(-c3cc(Nc4n[nH]c5ccccc45)cc(-c4ccccc4)n3)cc12 | < 1000 nM

Compound | Ki
Cn1cnc(NCCC(Cc2ccccc2)Oc2ccc3c(=O)[nH][nH]c3c2)c1 (stereo unspecified) | < 1000 nM
O=c1[nH][nH]c2cc(CC(CCNc3nccnn3)Cc3ccccc3)ccc12 (stereo unspecified) | < 1000 nM
O=C(NC1CCCCC1)c1cc(Nc2nc(-c3ccc4[nH][nH]c(=O)c4c3)nc3ccccc23)n[nH]1 | < 1000 nM
O=c1[nH][nH]c2ccc(-c3nc(Nc4n[nH]c5ccccc45)cc(-c4cnc[nH]4)n3)c(C(F)(F)F)c12 | < 1000 nM
O=c1[nH][nH]c2cc(OCCCNc3cc(C4CC4)[nH]n3)ccc12 | < 1000 nM
O=c1[nH][nH]c2cc(Cl)c(-c3cc(Nc4n[nH]c5ccccc45)c4c(n3)CCCC4)cc12 | < 1000 nM
O=c1[nH][nH]c2cc(SC(CCNc3ccccn3)Cc3ccccc3)ccc12 (stereo unspecified) | < 1000 nM
O=c1[nH][nH]c2cc(CCCONc3cc(C4CC4)[nH]n3)ccc12 | < 1000 nM
CN1CCN(c2cc(Nc3cc(C4CC4)[nH]n3)nc(Sc3ccc4c(=O)[nH][nH]c4c3)n2)CC1 | < 1000 nM
O=c1[nH][nH]c2cc(Sc3cc(Nc4cc(C5CC5)[nH]n4)c4ccccc4n3)ccc12 | < 1000 nM
O=c1[nH][nH]c2cc(Nc3nc(Nc4cc(-c5ccco5)[nH]n4)cc(-c4ccccc4)n3)ccc12 | < 1000 nM
Cc1cnc(NC2CCCC2CSc2ccc3c(=O)[nH][nH]c3c2)s1 (stereo unspecified) | < 1000 nM
O=c1[nH][nH]c2cc(Oc3cc4ccccc4c(Nc4cc(C5CC5)[nH]n4)n3)ccc12 | < 1000 nM
O=c1[nH][nH]c2cc(SC3CCCC(Nc4cc(C5CC5)[nH]n4)C3)ccc12 (stereo unspecified) | < 1000 nM
O=c1[nH][nH]c2cc(Nc3nc(Nc4cc(C5CC5)[nH]n4)c4cc(Cl)ccc4n3)ccc12 | < 1000 nM
Cc1cc(Nc2nc(-c3cc4c(=O)[nH][nH]c4cc3C(F)(F)F)nc3cnoc23)n[nH]1 | < 1000 nM
O=c1[nH][nH]c2ccc(C3CCC(Nc4nccnn4)C3)cc12 (stereo unspecified) | < 1000 nM
Cc1cc(-c2cc3c(=O)[nH][nH]c3cc2Cl)nc(Nc2n[nH]c3ccccc23)c1C | < 1000 nM
